Assay results as given in ChEMBL document CHEMBL1201862, “PubChem BioAssay data set” (2004).
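96-well plates; 48 h exposure; 5 concentrations. Endpoints by linear interpolation between flanking doses. Not reached: highest tested concentration assigned. Here, GI50 denotes the concentration required for 50% inhibition of growth.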 Activity calls are given as the source filed them. Cut-off read from the data, not from the text of the source: active = GI50 up to about 1.1 µM and inactive = higher.

Columns and labels:
Assay in all cases: NCI tumour cell line growth inhibition, 48 h
DLD-1 = system: DLD-1
A498 = system: A498
MDA-N = system: MDA-N
SNB-75 = system: SNB-75
U-251 = system: U-251
BT-549 = system: BT-549
NCI/ADR-RES = system: NCI/ADR-RES
HCT-116 = system: HCT-116
SW-620 = system: SW-620
ACHN = system: ACHN
Hs-578T = system: Hs-578T
DU-145 = system: DU-145
IGROV-1 = system: IGROV-1
SF-539 = system: SF-539
HOP-62 = system: HOP-62
KM12 = system: KM12
A549 = system: A549
SK-MEL-2 = system: SK-MEL-2
M14 = system: M14
MDA-MB-435 = system: MDA-MB-435
786-0 = system: 786-0
SK-MEL-5 = system: SK-MEL-5
KM-20L2 = system: KM-20L2
RXF 393 = system: RXF 393
NCI-H23 = system: NCI-H23
K562 = system: K562
Malme-3M = system: Malme-3M
COLO 205 = system: COLO 205
XF498 = system: XF498
HOP-18 = system: HOP-18
MDA-MB-231 = system: MDA-MB-231
EKVX = system: EKVX
SR = system: SR
LOX IMVI = system: LOX IMVI
HT-29 = system: HT-29
SN12C = system: SN12C
SK-MEL-28 = system: SK-MEL-28
M19-MEL = system: M19-MEL
HOP-92 = system: HOP-92
SNB-78 = system: SNB-78
T47D = system: T47D
SF-295 = system: SF-295
HCT-15 = system: HCT-15
UACC-62 = system: UACC-62
DMS-114 = system: DMS-114
OVCAR-4 = system: OVCAR-4
NCI-H522 = system: NCI-H522
HL-60 = system: HL-60
SF-268 = system: SF-268
HCC 2998 = system: HCC 2998
OVCAR-5 = system: OVCAR-5
UO-31 = system: UO-31
DMS-273 = system: DMS-273
MCF7 = system: MCF7
PC-3 = system: PC-3
SK-OV-3 = system: SK-OV-3
TK-10 = system: TK-10
OVCAR-3 = system: OVCAR-3
MOLT-4 = system: MOLT-4
RPMI-8226 = system: RPMI-8226
NCI-H226 = system: NCI-H226
UACC-257 = system: UACC-257
OVCAR-8 = system: OVCAR-8
NCI-H460 = system: NCI-H460
CCRF-CEM = system: CCRF-CEM
CAKI-1 = system: CAKI-1
SNB-19 = system: SNB-19

C[C@]12CC[C@H](OC3OC(CO)C(O)C(O)C3O)C[C@H]1CC[C@@H]1[C@@H]2CC[C@]2(C)[C@@H](C3=CCOC3=O)CC[C@]12O (stereo partly specified) [ACTODIGIN]
GI50 (DLD-1): 39700 nM (inactive)
GI50 (A498): 5480 nM (inactive)
GI50 (MDA-N): > 100000 nM (inactive)
GI50 (SNB-75): 6840 nM (inactive)
GI50 (U-251): 4730 nM (inactive)
GI50 (BT-549): > 100000 nM (inactive)
GI50 (NCI/ADR-RES): 24400 nM (inactive)
GI50 (HCT-116): 15700 nM (inactive)
GI50 (SW-620): 18600 nM (inactive)
GI50 (ACHN): 14500 nM (inactive)
GI50 (Hs-578T): 40900 nM (inactive)
GI50 (DU-145): > 100000 nM (inactive)
GI50 (IGROV-1): 28400 nM (inactive)
GI50 (SF-539): 447 nM (active)
GI50 (HOP-62): 787 nM (active)
GI50 (KM12): 19200 nM (inactive)
GI50 (A549): 15700 nM (inactive)
GI50 (SK-MEL-2): 30900 nM (inactive)
GI50 (M14): > 100000 nM (inactive)
GI50 (MDA-MB-435): > 100000 nM (inactive)
GI50 (786-0): > 100000 nM (inactive)
GI50 (SK-MEL-5): 7520 nM (inactive)
GI50 (KM-20L2): 3550 nM (inactive)
GI50 (RXF 393): 8490 nM (inactive)
GI50 (NCI-H23): 15800 nM (inactive)
GI50 (K562): 21500 nM (inactive)
GI50 (Malme-3M): 2090 nM (inactive)
GI50 (COLO 205): 16900 nM (inactive)
GI50 (XF498): 1440 nM (inactive)
GI50 (HOP-18): 50000 nM (inactive)
GI50 (MDA-MB-231): > 100000 nM (inactive)
GI50 (EKVX): 16500 nM (inactive)
GI50 (SR): 2960 nM (inactive)
GI50 (LOX IMVI): 495 nM (active)
GI50 (HT-29): 41100 nM (inactive)
GI50 (SN12C): 20100 nM (inactive)
GI50 (SK-MEL-28): 22500 nM (inactive)
GI50 (M19-MEL): 11700 nM (inactive)
GI50 (HOP-92): 2240 nM (inactive)
GI50 (SNB-78): 26500 nM (inactive)
GI50 (T47D): > 100000 nM (inactive)
GI50 (SF-295): 1450 nM (inactive)
GI50 (HCT-15): 22700 nM
GI50 (UACC-62): 6640 nM (inactive)
GI50 (DMS-114): 10200 nM (inactive)
GI50 (OVCAR-4): 41000 nM (inactive)
GI50 (NCI-H522): 16800 nM (inactive)
GI50 (HL-60): 4510 nM (inactive)
GI50 (SF-268): 8200 nM (inactive)
GI50 (HCC 2998): 26800 nM (inactive)
GI50 (OVCAR-5): > 50000 nM (inactive)
GI50 (UO-31): 40300 nM (inactive)
GI50 (DMS-273): 1970 nM (inactive)
GI50 (MCF7): 10400 nM (inactive)
GI50 (PC-3): > 100000 nM (inactive)
GI50 (SK-OV-3): > 50000 nM (inactive)
GI50 (TK-10): > 100000 nM (inactive)

Cc1c2ccncc2c(C)c2c1[nH]c1ccccc12 [ELLIPTECINE]
GI50 (DLD-1): 509 nM (active)
GI50 (OVCAR-3): 322 nM (active)
GI50 (A498): 794 nM (active)
GI50 (SNB-75): 1470 nM (inactive)
GI50 (MOLT-4): 256 nM (active)
GI50 (U-251): 771 nM (active)
GI50 (NCI/ADR-RES): 659 nM (active)
GI50 (HCT-116): 272 nM (active)
GI50 (SW-620): 360 nM (active)
GI50 (IGROV-1): 729 nM (active)
GI50 (SF-539): 867 nM (active)
GI50 (HOP-62): 818 nM (active)
GI50 (KM12): 473 nM (active)
GI50 (A549): 504 nM (active)
GI50 (SK-MEL-2): 2770 nM (inactive)
GI50 (RPMI-8226): 617 nM (active)
GI50 (SK-MEL-5): 944 nM (active)
GI50 (KM-20L2): 548 nM (active)
GI50 (RXF 393): 288 nM (active)
GI50 (NCI-H23): 656 nM (active)
GI50 (K562): 470 nM (active)
GI50 (Malme-3M): 2010 nM (inactive)
GI50 (NCI-H226): 1420 nM (inactive)
GI50 (COLO 205): 502 nM (active)
GI50 (XF498): 1810 nM (inactive)
GI50 (HOP-18): 1490 nM (inactive)
GI50 (EKVX): 933 nM (active)
GI50 (UACC-257): 1420 nM (inactive)
GI50 (LOX IMVI): 536 nM (active)
GI50 (HT-29): 863 nM (active)
GI50 (OVCAR-8): 406 nM (active)
GI50 (SN12C): 1060 nM (active)
GI50 (SK-MEL-28): 1500 nM (inactive)
GI50 (M19-MEL): 857 nM (active)
GI50 (HOP-92): 538 nM (active)
GI50 (SNB-78): 1480 nM (inactive)
GI50 (SF-295): 805 nM (active)
GI50 (HCT-15): 402 nM
GI50 (UACC-62): 1480 nM (inactive)
GI50 (NCI-H460): 150 nM (active)
GI50 (DMS-114): 940 nM (active)
GI50 (OVCAR-4): 802 nM (active)
GI50 (NCI-H522): 1160 nM (inactive)
GI50 (HL-60): 883 nM (active)
GI50 (SF-268): 698 nM (active)
GI50 (HCC 2998): 2680 nM (inactive)
GI50 (CCRF-CEM): 411 nM (active)
GI50 (OVCAR-5): 1460 nM (inactive)
GI50 (UO-31): 1950 nM (inactive)
GI50 (CAKI-1): 1210 nM (inactive)
GI50 (DMS-273): 378 nM (active)
GI50 (MCF7): 571 nM (active)
GI50 (SNB-19): 826 nM (active)
GI50 (SK-OV-3): 1610 nM (inactive)
